# Results taken from BindingDB's records for doi:10.1016/j.bmcl.2007.07.021 (Boehringer Ingelheim Pharmaceuticals, 2007).
# Target: T1, Mineralocorticoid receptor (Homo sapiens, UniProt P08235)
# T1 sequence (P08235 whole entry): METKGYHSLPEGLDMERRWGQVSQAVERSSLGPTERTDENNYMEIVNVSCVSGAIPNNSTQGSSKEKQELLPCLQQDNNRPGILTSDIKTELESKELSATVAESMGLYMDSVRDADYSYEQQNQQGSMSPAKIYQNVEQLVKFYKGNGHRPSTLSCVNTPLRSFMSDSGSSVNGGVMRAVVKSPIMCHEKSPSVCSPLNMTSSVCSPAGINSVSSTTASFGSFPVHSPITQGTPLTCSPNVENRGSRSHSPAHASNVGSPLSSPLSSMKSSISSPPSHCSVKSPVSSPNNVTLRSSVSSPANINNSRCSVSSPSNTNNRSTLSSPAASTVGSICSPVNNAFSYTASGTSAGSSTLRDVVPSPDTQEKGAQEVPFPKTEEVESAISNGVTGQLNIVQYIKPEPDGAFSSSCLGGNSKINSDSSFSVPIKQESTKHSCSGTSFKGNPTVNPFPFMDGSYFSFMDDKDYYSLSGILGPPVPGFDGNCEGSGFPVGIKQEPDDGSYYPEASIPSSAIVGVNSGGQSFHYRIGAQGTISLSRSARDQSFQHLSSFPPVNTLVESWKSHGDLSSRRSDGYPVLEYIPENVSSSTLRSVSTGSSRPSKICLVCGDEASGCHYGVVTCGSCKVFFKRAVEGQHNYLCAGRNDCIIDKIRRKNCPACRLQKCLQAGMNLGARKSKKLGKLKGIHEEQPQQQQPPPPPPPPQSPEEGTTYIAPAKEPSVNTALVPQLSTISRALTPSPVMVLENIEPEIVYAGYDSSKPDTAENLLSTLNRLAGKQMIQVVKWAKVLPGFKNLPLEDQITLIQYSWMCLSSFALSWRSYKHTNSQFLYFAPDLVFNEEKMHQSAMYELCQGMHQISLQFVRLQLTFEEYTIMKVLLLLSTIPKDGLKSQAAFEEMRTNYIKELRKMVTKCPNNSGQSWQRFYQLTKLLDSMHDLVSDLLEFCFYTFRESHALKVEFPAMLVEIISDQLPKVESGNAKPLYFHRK
# Experiment: Fluorescence Polarization Competitive Binding Assay.
# Description: IC50 values shown are means of a single experiment done in duplicate 11-point concentration-effect curves.
structure (smiles),measurement,value
"C=CCOC(C)C1=CC(C)(C)Nc2ccc(-c3ccccc3OC)cc21 (stereo unspecified) [6-(2-methoxyphenyl)-2,2-dimethyl-4-[1-(prop-2-en-1-yloxy)ethyl]-1,2-dihydroquinoline]",IC50,970 nM
